Activity calls are given as the source filed them. The rule behind the calls is not given here.
How the values were obtained:
[1] = tested on: MOLM-13; test: Antiproliferative activity against human MOLM-13 cells incubated for 6 days by CellTiter-Glo assay; assay type: functional, cell-based; conditions: MOLM-13, 144 h
[2] = target: N6-adenosine-methyltransferase catalytic subunit (Homo sapiens, UniProt Q86U44); test: Inhibition of METTL3 in human MOLM-13 cells assessed as reduction in m6A methylation level at 0.1 to 50 uM measured by NanoDrop spectrophotomery analysis; assay type: cell-based; conditions: dose 0.1-50 µM
[3] = tested on: MOLM-13; test: Antiproliferative activity against IFN-gamma-treated human MOLM-13 cells incubated for 7 days by CellTiter-Glo assay; assay type: functional, cell-based; conditions: MOLM-13, 168 h
[4] = tested on: Kasumi 1; test: Antiproliferative activity against IFN-gamma-treated human Kasumi 1 cells incubated for 6 days by CellTiter-Glo assay; assay type: functional, cell-based; conditions: Kasumi 1, 144 h
[5] = tested on: NOMO-1; test: Antiproliferative activity against IFN-gamma-treated human NOMO-1 cells incubated for 6 days by CellTiter-Glo assay; assay type: functional, cell-based; conditions: NOMO-1, 144 h
[6] = tested on: THP-1; test: Antiproliferative activity against IFN-gamma-treated human THP-1 cells incubated for 7 days by CellTiter-Glo assay; assay type: functional, cell-based; conditions: THP-1, 168 h
[7] = tested on: KCL-22; test: Antiproliferative activity against IFN-gamma-treated human KCL-22 cells incubated for 6 days by CellTiter-Glo assay; assay type: functional, cell-based; conditions: KCL-22, 144 h
[8] = tested on: Caov-3 cell line; test: Antiproliferative activity against human Caov-3 cells incubated for 120 hrs by CellTiter-Glo assay; assay type: functional, cell-based; conditions: Caov-3, 120 h

Chain of N6-adenosine-methyltransferase catalytic subunit (Q86U44 whole entry): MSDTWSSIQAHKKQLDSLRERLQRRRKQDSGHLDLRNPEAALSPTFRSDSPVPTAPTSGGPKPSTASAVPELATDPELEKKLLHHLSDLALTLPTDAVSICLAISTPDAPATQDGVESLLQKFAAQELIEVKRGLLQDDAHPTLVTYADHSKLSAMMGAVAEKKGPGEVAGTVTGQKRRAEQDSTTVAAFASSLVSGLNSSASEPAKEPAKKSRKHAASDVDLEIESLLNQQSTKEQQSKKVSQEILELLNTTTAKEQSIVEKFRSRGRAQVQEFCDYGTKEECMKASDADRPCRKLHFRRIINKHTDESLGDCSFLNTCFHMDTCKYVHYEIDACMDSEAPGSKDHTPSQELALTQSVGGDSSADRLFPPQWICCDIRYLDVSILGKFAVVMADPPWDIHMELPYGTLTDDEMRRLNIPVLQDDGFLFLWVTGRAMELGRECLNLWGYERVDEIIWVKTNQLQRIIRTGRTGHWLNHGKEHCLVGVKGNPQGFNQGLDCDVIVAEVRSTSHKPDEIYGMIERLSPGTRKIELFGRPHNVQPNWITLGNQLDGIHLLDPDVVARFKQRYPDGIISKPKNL

| Compound | IC50 [1] | further results |
| --- | --- | --- |
| COC(C)(C)CNCc1ccc2nc(CNC(=O)c3cc(=O)n4ccccc4n3)cn2c1 | 30 µM | – |
| O=C(NCc1cn2cc(CNCCCc3ccccc3)ccc2n1)c1cc(=O)n2ccccc2n1 | 4.64 µM | – |
| Cc1ccc2nc(CNC(=O)c3cc(=O)n4ccccc4n3)cn2c1 | – | inhibition [2]: Active |
| O=C(NCc1cn2cc(CNCCc3ccccc3)ccc2n1)c1cc(=O)n2ccccc2n1 | 3.9 µM | – |
| CN(Cc1ccccc1)Cc1ccc2nc(CNC(=O)c3cc(=O)n4ccccc4n3)cn2c1 | 30 µM | – |
| CN(C)C(=O)c1cc(-c2cn(Cc3cn4cc(CNCC5CCC5)ccc4n3)nn2)c2cn[nH]c2c1 | 30 µM | – |
| N#CCC(NCC1CCC1)c1ccc2nc(CNC(=O)c3cc(=O)n4ccccc4n3)cn2c1 (stereo not given) | 30 µM | – |
| Oc1cc(-c2cn(Cc3cn4cc(CNCC5(O)CCC5)ccc4n3)nn2)c2cn[nH]c2c1 | 30 µM | – |
| CC(C)(O)CNCc1ccc2nc(CNC(=O)c3cc(=O)n4ccccc4n3)cn2c1 | 30 µM | – |
| O=C(O)c1cc(-c2cn(Cc3cn4cc(CNCC5CCC5)ccc4n3)nn2)c2cn[nH]c2c1 | 30 µM | – |
| O=C(NCc1cn2cc(CNC3CCC3)ccc2n1)c1cc(=O)n2ccccc2n1 | 30 µM | – |
| O=C(NCc1cn2cc(CNCCC3CC(F)(F)C3)ccc2n1)c1cc(=O)n2ccccc2n1 | 30 µM | – |
| NC(=O)c1cc(-c2cn(Cc3cn4cc(CNCC5CCC5)ccc4n3)nn2)c2cn[nH]c2c1 | 30 µM | – |
| O=C(NCc1cn2cc(CNCc3ccccc3)ccc2n1)c1cc(=O)n2ccccc2n1 | 3.59 µM | IC50 [3]: 847 nM; IC50 [4]: 1890 nM; IC50 [5]: 6.55 µM; IC50 [6]: 2120 nM; IC50 [7]: 14 µM |
| O=C(NCc1cn2cc(CNCC34CC(C3)C4)ccc2n1)c1cc(=O)n2ccccc2n1 | 1.33 µM | IC50 [8]: 296 nM |
| O=C(NCc1cn2cc(CCNCc3ccccc3)ccc2n1)c1cc(=O)n2ccccc2n1 | 30 µM | – |
| O=C(c1cc(-c2cn(Cc3cn4cc(CNCC5CCC5)ccc4n3)nn2)c2cn[nH]c2c1)N1CCOCC1 | 30 µM | – |
| O=C(NCc1cn2cc(CNCC3CC4(CC4)C3)ccc2n1)c1cc(=O)n2ccccc2n1 | 30 µM | – |
| CC(C)(C)NCc1ccc2nc(CNC(=O)c3cc(=O)n4ccccc4n3)cn2c1 | 30 µM | – |
